What was measured:
[1] = test system: barnyardgrass (Echinochloa crus-galli); test: Test A preemergence, visual injury rating 0-100 (0 no effect, 100 complete control); assay type: in vivo; details: for Barnyardgrass plant response rating (0 to 100 scale): 125 g ai/ha; for Barnyardgrass plant response rating: 500 g ai/ha, 0 to 100 scale
[2] = test system: ragweed (common ragweed, Ambrosia elatior); test: Test A preemergence, visual injury rating 0-100; assay type: in vivo
[3] = test system: ryegrass, Italian (Italian ryegrass, Lolium multiflorum); test: Test A preemergence, visual injury rating 0-100; assay type: in vivo
kochia (Kochia scoparia) [4] = test: Test A preemergence, visual injury rating 0-100; assay type: in vivo
[5] = test system: pigweed (Amaranthus retroflexus); test: Test A preemergence, visual injury rating 0-100; assay type: in vivo
[6] = test system: foxtail, green (green foxtail, Setaria viridis); test: Test A preemergence, visual injury rating 0-100; assay type: in vivo
rice (Oryza sativa) = test: Test B flooded paddy test, visual rating 0-100 (0 no effect, 100 complete control); details: Flood, 250 g ai/ha, applied to paddy water, rated after 13 to 15 days
[7] = test system: barnyardgrass (Echinochloa crus-galli); test: Test B flooded paddy test, visual rating 0-100; details: Flood, 250 g ai/ha, applied to paddy water, rated after 13 to 15 days
corn (Zea mays) = test: Test A postemergence, visual injury rating 0-100; assay type: in vivo; details: 0 to 100 scale
[8] = test system: barnyardgrass (Echinochloa crus-galli); test: Test A postemergence, visual injury rating 0-100; assay type: in vivo; details: 0 to 100 scale
[9] = test system: wheat (Triticum aestivum); test: Test A postemergence, visual injury rating 0-100; assay type: in vivo; details: 0 to 100 scale
[10] = test system: ragweed (common ragweed, Ambrosia elatior); test: Test A postemergence, visual injury rating 0-100; assay type: in vivo; details: 0 to 100 scale
[11] = test system: ryegrass, Italian (Italian ryegrass, Lolium multiflorum); test: Test A postemergence, visual injury rating 0-100; assay type: in vivo; details: 0 to 100 scale
[12] = test system: blackgrass (Alopecurus myosuroides); test: Test A postemergence, visual injury rating 0-100; assay type: in vivo; details: 0 to 100 scale
kochia (Kochia scoparia) [13] = test: Test A postemergence, visual injury rating 0-100; assay type: in vivo; details: 0 to 100 scale
[14] = test system: pigweed (Amaranthus retroflexus); test: Test A postemergence, visual injury rating 0-100; assay type: in vivo; details: 0 to 100 scale
[15] = test system: foxtail, green (green foxtail, Setaria viridis); test: Test A postemergence, visual injury rating 0-100; assay type: in vivo; details: 0 to 100 scale
[16] = test system: ducksalad (Heteranthera limosa); test: Test B flooded paddy test, visual rating 0-100; details: Flood, 250 g ai/ha, applied to paddy water, rated after 13 to 15 days

Structure (SMILES) | Barnyardgrass plant response rating (0 to 100 scale) [1] | Barnyardgrass plant response rating [1] | Ragweed plant response rating (0 to 100 scale) ([2]; 125 g ai/ha) | Ragweed plant response rating (0 to 100 scale) ([2]; 500 g ai/ha) | Ryegrass, Italian plant response rating (0 to 100 scale) ([3]; 125 g ai/ha) | Ryegrass, Italian plant response rating (0 to 100 scale) ([3]; 500 g ai/ha) | Kochia plant response rating (0 to 100 scale) (kochia (Kochia scoparia) [4]; 125 g ai/ha) | Kochia plant response rating (0 to 100 scale) (kochia (Kochia scoparia) [4]; 500 g ai/ha) | Pigweed plant response rating (0 to 100 scale) ([5]; 125 g ai/ha) | Pigweed plant response rating (0 to 100 scale) ([5]; 500 g ai/ha) | Foxtail, Green plant response rating (0 to 100 scale) ([6]; 125 g ai/ha) | Foxtail, Green plant response rating (0 to 100 scale) ([6]; 500 g ai/ha) | Rice plant response rating (0 to 100 scale) (rice (Oryza sativa)) | Barnyardgrass plant response rating (0 to 100 scale) [7] | Corn plant response rating (corn (Zea mays); 125 g ai/ha) | Corn plant response rating (corn (Zea mays); 500 g ai/ha) | Barnyardgrass plant response rating ([8]; 125 g ai/ha) | Barnyardgrass plant response rating ([8]; 500 g ai/ha) | Wheat plant response rating ([9]; 125 g ai/ha) | Wheat plant response rating ([9]; 500 g ai/ha) | further results
CC1=[N+]([O-])C(C(=O)Nc2cccc(F)c2C#N)C(c2ccc(C(F)(F)F)cc2)C1 (racemic) [Compound 34] | 80 | 100 | 50 | 100 | 0 | 0 | 0 | 90 | 0 | 90 | 40 | 100 | 0 | 35 | 0 | 0 | 30 | 70 | 0 | 50 | Ragweed plant response rating ([10]; 125 g ai/ha): 0; Ragweed plant response rating ([10]; 500 g ai/ha): 50; Ryegrass, Italian plant response rating ([11]; 125 g ai/ha): 0; Ryegrass, Italian plant response rating ([11]; 500 g ai/ha): 30; Blackgrass plant response rating ([12]; 125 g ai/ha): 40; Blackgrass plant response rating ([12]; 500 g ai/ha): 80; Kochia plant response rating (kochia (Kochia scoparia) [13]; 125 g ai/ha): 0; Kochia plant response rating (kochia (Kochia scoparia) [13]; 500 g ai/ha): 30; Pigweed plant response rating ([14]; 125 g ai/ha): 30; Pigweed plant response rating ([14]; 500 g ai/ha): 70; Foxtail, Green plant response rating ([15]; 125 g ai/ha): 0; Foxtail, Green plant response rating ([15]; 500 g ai/ha): 80; Ducksalad plant response rating (0 to 100 scale) [16]: 50
O=C(Nc1cccc(F)c1F)C1C(c2ccccc2)CC(C(F)(F)F)=[N+]1[O-] (racemic) [Compound 35] | 0 | 0 | 0 | 0 | 0 | 0 | 0 | 0 | 0 | 0 | 0 | 0 | 0 | 0 | 0 | 0 | 0 | 0 | 0 | 0 | Ragweed plant response rating ([10]; 125 g ai/ha): 0; Ragweed plant response rating ([10]; 500 g ai/ha): 0; Ryegrass, Italian plant response rating ([11]; 125 g ai/ha): 0; Ryegrass, Italian plant response rating ([11]; 500 g ai/ha): 0; Blackgrass plant response rating ([12]; 125 g ai/ha): 0; Blackgrass plant response rating ([12]; 500 g ai/ha): 0; Kochia plant response rating (kochia (Kochia scoparia) [13]; 125 g ai/ha): 0; Kochia plant response rating (kochia (Kochia scoparia) [13]; 500 g ai/ha): 0; Pigweed plant response rating ([14]; 125 g ai/ha): 0; Pigweed plant response rating ([14]; 500 g ai/ha): 0; Foxtail, Green plant response rating ([15]; 125 g ai/ha): 0; Foxtail, Green plant response rating ([15]; 500 g ai/ha): 0; Ducksalad plant response rating (0 to 100 scale) [16]: 0
CC1=[N+]([O-])C(C(=O)Nc2ccncc2C(F)(F)F)C(c2ccc(C(F)(F)F)cc2)C1 (racemic) [Compound 36] | 70 | 60 | 0 | 80 | 10 | 60 | 0 | 90 | 0 | 60 | 0 | 100 | 0 | 30 | 20 | 0 | 0 | 0 | 0 | 0 | Ragweed plant response rating ([10]; 125 g ai/ha): 0; Ragweed plant response rating ([10]; 500 g ai/ha): 0; Ryegrass, Italian plant response rating ([11]; 500 g ai/ha): 20; Blackgrass plant response rating ([12]; 125 g ai/ha): 20; Blackgrass plant response rating ([12]; 500 g ai/ha): 20; Kochia plant response rating (kochia (Kochia scoparia) [13]; 125 g ai/ha): 0; Kochia plant response rating (kochia (Kochia scoparia) [13]; 500 g ai/ha): 0; Pigweed plant response rating ([14]; 125 g ai/ha): 0; Pigweed plant response rating ([14]; 500 g ai/ha): 0; Foxtail, Green plant response rating ([15]; 125 g ai/ha): 0; Foxtail, Green plant response rating ([15]; 500 g ai/ha): 20; Ducksalad plant response rating (0 to 100 scale) [16]: 0
CC1=[N+]([O-])C(C(=O)Nc2ccc(F)c(F)c2F)C(c2ccc(C(F)(F)F)cc2)C1 (racemic) [Compound 38] | 90 | 100 | 30 | 90 | 30 | 50 | 0 | 90 | 30 | 80 | 100 | 100 | 0 | 60 | 20 | 70 | 90 | 60 | 30 | 60 | Ragweed plant response rating ([10]; 125 g ai/ha): 0; Ragweed plant response rating ([10]; 500 g ai/ha): 20; Ryegrass, Italian plant response rating ([11]; 125 g ai/ha): 30; Ryegrass, Italian plant response rating ([11]; 500 g ai/ha): 20; Blackgrass plant response rating ([12]; 125 g ai/ha): 40; Blackgrass plant response rating ([12]; 500 g ai/ha): 70; Kochia plant response rating (kochia (Kochia scoparia) [13]; 125 g ai/ha): 0; Kochia plant response rating (kochia (Kochia scoparia) [13]; 500 g ai/ha): 0; Pigweed plant response rating ([14]; 125 g ai/ha): 0; Pigweed plant response rating ([14]; 500 g ai/ha): 30; Foxtail, Green plant response rating ([15]; 125 g ai/ha): 70; Foxtail, Green plant response rating ([15]; 500 g ai/ha): 90; Ducksalad plant response rating (0 to 100 scale) [16]: 65
CC1=[N+]([O-])C(C(=O)Nc2ccccc2S(C)(=O)=O)C(c2ccc(C(F)(F)F)cc2)C1 (racemic) [Compound 43] | 20 | 100 | 0 | 100 | 0 | 0 | 0 | 80 | 40 | 90 | 80 | 100 | 0 | 0 | 0 | 0 | 20 | 60 | 0 | 0 | Ragweed plant response rating ([10]; 125 g ai/ha): 0; Ragweed plant response rating ([10]; 500 g ai/ha): 0; Ryegrass, Italian plant response rating ([11]; 125 g ai/ha): 0; Ryegrass, Italian plant response rating ([11]; 500 g ai/ha): 20; Blackgrass plant response rating ([12]; 125 g ai/ha): 0; Blackgrass plant response rating ([12]; 500 g ai/ha): 30; Kochia plant response rating (kochia (Kochia scoparia) [13]; 125 g ai/ha): 0; Kochia plant response rating (kochia (Kochia scoparia) [13]; 500 g ai/ha): 0; Pigweed plant response rating ([14]; 125 g ai/ha): 0; Pigweed plant response rating ([14]; 500 g ai/ha): 0; Foxtail, Green plant response rating ([15]; 125 g ai/ha): 20; Foxtail, Green plant response rating ([15]; 500 g ai/ha): 60; Ducksalad plant response rating (0 to 100 scale) [16]: 0
